Measured values taken from the supplement of paper PMC11451515.

Tested on: P12-Ichikawa
Assay: cell viability relative to DMSO control; higher = less cytotoxic
Conditions: 48 h
Summary of the method: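 NOMO1 or SEM (500 cells/well) or P12-Ichikawa (1000 cells/well) leukemia cells were adapted for at least four passages in each medium. They were seeded in 1536-well plates (5 μl) and pin-dosed with library compounds in DMSO over an 11-point threefold series, 47 μM to 0.79 nM. CellTiter-Glo One luminescence was read after 48 h at 37°C. Viability is the per-plate percentage relative to DMSO wells, with cell-free wells as background.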

[1] = HPLM + 10% dialyzed FBS, 0.000781 µM
[2] = HPLM + 10% dialyzed FBS, 0.00234 µM
[3] = HPLM + 10% dialyzed FBS, 0.00702 µM
[4] = HPLM + 10% dialyzed FBS, 0.0211 µM
[5] = HPLM + 10% dialyzed FBS, 0.0632 µM
[6] = HPLM + 10% dialyzed FBS, 0.19 µM
[7] = HPLM + 10% dialyzed FBS, 0.569 µM
[8] = HPLM + 10% dialyzed FBS, 1.71 µM
[9] = HPLM + 10% dialyzed FBS, 5.12 µM
[10] = HPLM + 10% dialyzed FBS, 15.4 µM
[11] = HPLM + 10% dialyzed FBS, 46.1 µM
[12] = RPMI 5 mM glucose + 10% FBS, 0.000781 µM
[13] = RPMI 5 mM glucose + 10% FBS, 0.00234 µM
[14] = RPMI 5 mM glucose + 10% FBS, 0.00702 µM
[15] = RPMI 5 mM glucose + 10% FBS, 0.0211 µM
[16] = RPMI 5 mM glucose + 10% FBS, 0.0632 µM
[17] = RPMI 5 mM glucose + 10% FBS, 0.19 µM
[18] = RPMI 5 mM glucose + 10% FBS, 0.569 µM
[19] = RPMI 5 mM glucose + 10% FBS, 1.71 µM
[20] = RPMI 5 mM glucose + 10% FBS, 5.12 µM
[21] = RPMI 5 mM glucose + 10% FBS, 15.4 µM
[22] = RPMI 5 mM glucose + 10% FBS, 46.1 µM
[23] = RPMI 5 mM glucose + 10% dialyzed FBS, 0.000781 µM
[24] = RPMI 5 mM glucose + 10% dialyzed FBS, 0.00234 µM
[25] = RPMI 5 mM glucose + 10% dialyzed FBS, 0.00702 µM
[26] = RPMI 5 mM glucose + 10% dialyzed FBS, 0.0211 µM
[27] = RPMI 5 mM glucose + 10% dialyzed FBS, 0.0632 µM
[28] = RPMI 5 mM glucose + 10% dialyzed FBS, 0.19 µM
[29] = RPMI 5 mM glucose + 10% dialyzed FBS, 0.569 µM
[30] = RPMI 5 mM glucose + 10% dialyzed FBS, 1.71 µM
[31] = RPMI 5 mM glucose + 10% dialyzed FBS, 5.12 µM
[32] = RPMI 5 mM glucose + 10% dialyzed FBS, 15.4 µM
[33] = RPMI 5 mM glucose + 10% dialyzed FBS, 46.1 µM

## Nc1ccc(C(=O)c2cc3c(ccc4ccccc43)[nH]2)cc1
[1]
  cell viability: 121%
[2]
  cell viability: 124%
[3]
  cell viability: 122%
[4]
  cell viability: 118%
[5]
  cell viability: 120%
[6]
  cell viability: 109%
[7]
  cell viability: 96.4%
[8]
  cell viability: 81.4%
[9]
  cell viability: 31.1%
[10]
  cell viability: 10.6%
[11]
  cell viability: 5.96%
[12]
  cell viability: 118%
[13]
  cell viability: 112%
[14]
  cell viability: 115%
[15]
  cell viability: 118%
[16]
  cell viability: 112%
[17]
  cell viability: 108%
[18]
  cell viability: 102%
[19]
  cell viability: 77.5%
[20]
  cell viability: 40.7%
[21]
  cell viability: 12.9%
[22]
  cell viability: 8.36%
[23]
  cell viability: 118%
[24]
  cell viability: 115%
[25]
  cell viability: 117%
[26]
  cell viability: 102%
[27]
  cell viability: 116%
[28]
  cell viability: 111%
[29]
  cell viability: 91%
[30]
  cell viability: 74.9%
[31]
  cell viability: 56.6%
[32]
  cell viability: 13.7%
[33]
  cell viability: 5.99%

## CN(CCOc1ccc(CC2SC(=O)NC2=O)cc1)c1ccccn1 (centres undefined)
[1]
  cell viability: 116%
[2]
  cell viability: 124%
[3]
  cell viability: 113%
[4]
  cell viability: 121%
[5]
  cell viability: 116%
[6]
  cell viability: 115%
[7]
  cell viability: 120%
[8]
  cell viability: 114%
[9]
  cell viability: 114%
[10]
  cell viability: 111%
[11]
  cell viability: 103%
[12]
  cell viability: 123%
[13]
  cell viability: 130%
[14]
  cell viability: 122%
[15]
  cell viability: 116%
[16]
  cell viability: 120%
[17]
  cell viability: 125%
[18]
  cell viability: 129%
[19]
  cell viability: 125%
[20]
  cell viability: 115%
[21]
  cell viability: 113%
[22]
  cell viability: 106%
[23]
  cell viability: 123%
[24]
  cell viability: 123%
[25]
  cell viability: 127%
[26]
  cell viability: 119%
[27]
  cell viability: 116%
[28]
  cell viability: 123%
[29]
  cell viability: 127%
[30]
  cell viability: 118%
[31]
  cell viability: 113%
[32]
  cell viability: 112%
[33]
  cell viability: 97.4%

## COCCn1c2c([n+](Cc3cnccn3)c1C)C(=O)c1ccccc1C2=O
[1]
  cell viability: 116%
[2]
  cell viability: 115%
[3]
  cell viability: 113%
[4]
  cell viability: 112%
[5]
  cell viability: 104%
[6]
  cell viability: 51.4%
[7]
  cell viability: 41.9%
[8]
  cell viability: 15.8%
[9]
  cell viability: 5.02%
[10]
  cell viability: 2.55%
[11]
  cell viability: 1.1%
[12]
  cell viability: 110%
[13]
  cell viability: 108%
[14]
  cell viability: 118%
[15]
  cell viability: 106%
[16]
  cell viability: 112%
[17]
  cell viability: 48.9%
[18]
  cell viability: 17.6%
[19]
  cell viability: 6.76%
[20]
  cell viability: 3.92%
[21]
  cell viability: 3.27%
[22]
  cell viability: 2.14%
[23]
  cell viability: 113%
[24]
  cell viability: 108%
[25]
  cell viability: 112%
[26]
  cell viability: 110%
[27]
  cell viability: 106%
[28]
  cell viability: 51.4%
[29]
  cell viability: 11.7%
[30]
  cell viability: 5.22%
[31]
  cell viability: 3.6%
[32]
  cell viability: 2.56%
[33]
  cell viability: 1.9%

## CC1(C)CC\C2=C(/O1)C3=C(C=CC=C3)C(=O)C2=O
[1]
  cell viability: 112%
[2]
  cell viability: 118%
[3]
  cell viability: 114%
[4]
  cell viability: 116%
[5]
  cell viability: 106%
[6]
  cell viability: 111%
[7]
  cell viability: 110%
[8]
  cell viability: 102%
[9]
  cell viability: 104%
[10]
  cell viability: 99.4%
[11]
  cell viability: 2.4%
[12]
  cell viability: 113%
[13]
  cell viability: 106%
[14]
  cell viability: 94.9%
[15]
  cell viability: 102%
[16]
  cell viability: 112%
[17]
  cell viability: 109%
[18]
  cell viability: 105%
[19]
  cell viability: 98.3%
[20]
  cell viability: 105%
[21]
  cell viability: 90.5%
[22]
  cell viability: 0.954%
[23]
  cell viability: 107%
[24]
  cell viability: 119%
[25]
  cell viability: 100%
[26]
  cell viability: 101%
[27]
  cell viability: 108%
[28]
  cell viability: 96.6%
[29]
  cell viability: 109%
[30]
  cell viability: 89.2%
[31]
  cell viability: 102%
[32]
  cell viability: 94.9%
[33]
  cell viability: 1.41%

## CNC(=O)c1ccc2c(c1)NC(=O)/C2=C(\Nc1cccc(CN(C)C)c1)c1ccccc1
[1]
  cell viability: 92.9%
[2]
  cell viability: 97.2%
[3]
  cell viability: 98.5%
[4]
  cell viability: 99.8%
[5]
  cell viability: 100%
[6]
  cell viability: 101%
[7]
  cell viability: 98.9%
[8]
  cell viability: 89.1%
[9]
  cell viability: 35.8%
[10]
  cell viability: 87.6%
[11]
  cell viability: 0.763%
[12]
  cell viability: 87.3%
[13]
  cell viability: 98.2%
[14]
  cell viability: 97.3%
[15]
  cell viability: 105%
[16]
  cell viability: 102%
[17]
  cell viability: 101%
[18]
  cell viability: 103%
[19]
  cell viability: 92.5%
[20]
  cell viability: 36.5%
[21]
  cell viability: 83.5%
[22]
  cell viability: 1.21%
[23]
  cell viability: 86.4%
[24]
  cell viability: 95.6%
[25]
  cell viability: 108%
[26]
  cell viability: 101%
[27]
  cell viability: 102%
[28]
  cell viability: 101%
[29]
  cell viability: 103%
[30]
  cell viability: 97.5%
[31]
  cell viability: 35.6%
[32]
  cell viability: 81.8%
[33]
  cell viability: 1.03%

## NCCCC(N)(C(=O)O)C(F)F (centres undefined)
[1]
  cell viability: 116%
[2]
  cell viability: 116%
[3]
  cell viability: 113%
[4]
  cell viability: 117%
[5]
  cell viability: 118%
[6]
  cell viability: 110%
[7]
  cell viability: 113%
[8]
  cell viability: 112%
[9]
  cell viability: 108%
[10]
  cell viability: 101%
[11]
  cell viability: 98.4%
[12]
  cell viability: 123%
[13]
  cell viability: 125%
[14]
  cell viability: 123%
[15]
  cell viability: 121%
[16]
  cell viability: 114%
[17]
  cell viability: 122%
[18]
  cell viability: 113%
[19]
  cell viability: 113%
[20]
  cell viability: 115%
[21]
  cell viability: 107%
[22]
  cell viability: 109%
[23]
  cell viability: 114%
[24]
  cell viability: 122%
[25]
  cell viability: 113%
[26]
  cell viability: 118%
[27]
  cell viability: 113%
[28]
  cell viability: 109%
[29]
  cell viability: 110%
[30]
  cell viability: 105%
[31]
  cell viability: 105%
[32]
  cell viability: 105%
[33]
  cell viability: 100%

## CCCN[C@H]1CCc2nc(N)sc2C1
[1]
  cell viability: 92.8%
[2]
  cell viability: 104%
[3]
  cell viability: 98%
[4]
  cell viability: 98.4%
[5]
  cell viability: 101%
[6]
  cell viability: 107%
[7]
  cell viability: 101%
[8]
  cell viability: 110%
[9]
  cell viability: 103%
[10]
  cell viability: 104%
[11]
  cell viability: 107%
[12]
  cell viability: 94.3%
[13]
  cell viability: 90.5%
[14]
  cell viability: 107%
[15]
  cell viability: 104%
[16]
  cell viability: 107%
[17]
  cell viability: 110%
[18]
  cell viability: 107%
[19]
  cell viability: 111%
[20]
  cell viability: 114%
[21]
  cell viability: 114%
[22]
  cell viability: 120%
[23]
  cell viability: 85.6%
[24]
  cell viability: 95.1%
[25]
  cell viability: 90.4%
[26]
  cell viability: 93.6%
[27]
  cell viability: 96%
[28]
  cell viability: 101%
[29]
  cell viability: 96.1%
[30]
  cell viability: 93.6%
[31]
  cell viability: 94.9%
[32]
  cell viability: 96.9%
[33]
  cell viability: 106%

## CN1C(=O)/C(=C(NC2=CC=C(I)C=C2F)\C3=C1\N=C/N(C[C@@H](O)CO)C3=O)F
[1]
  cell viability: 86.5%
[2]
  cell viability: 82.2%
[3]
  cell viability: 87.2%
[4]
  cell viability: 89.6%
[5]
  cell viability: 81.1%
[6]
  cell viability: 82.8%
[7]
  cell viability: 75.4%
[8]
  cell viability: 80.3%
[9]
  cell viability: 74.8%
[10]
  cell viability: 71.3%
[11]
  cell viability: 62.9%
[12]
  cell viability: 78.2%
[13]
  cell viability: 74.9%
[14]
  cell viability: 83.6%
[15]
  cell viability: 73.8%
[16]
  cell viability: 71.6%
[17]
  cell viability: 71.3%
[18]
  cell viability: 72.1%
[19]
  cell viability: 70.4%
[20]
  cell viability: 68%
[21]
  cell viability: 68.9%
[22]
  cell viability: 40.5%
[23]
  cell viability: 81.1%
[24]
  cell viability: 82.2%
[25]
  cell viability: 85.6%
[26]
  cell viability: 86.7%
[27]
  cell viability: 77.7%
[28]
  cell viability: 81.9%
[29]
  cell viability: 76.2%
[30]
  cell viability: 80.1%
[31]
  cell viability: 78%
[32]
  cell viability: 65.2%
[33]
  cell viability: 39.2%
